The source of these data is ChEMBL document CHEMBL1201862, “PubChem BioAssay data set” (2004).

Structures are written as SMILES.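 Protocol summary: plate cells (96-well), add compound at 5 concentrations, incubate 48 h, interpolate endpoints linearly. GI50 marks 50% less growth.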 Activity calls are given as the source filed them. Cut-off read from the data, not from the text of the source: active = GI50 up to about 1.1 µM and inactive = higher. Bounds are passed on as bounds.

Common to all, as to experiment: NCI-60 cell line screen, 48 h
Test [1] deals with DU-145.
For test [2], the system named is HCT-15.
In test [3] the test system is Hs-578T.
In test [4] the test system is KM12.
Test [5] relates to MCF7.
Test [6] has as its system OVCAR-3.
Test [7] relates to OVCAR-5.
Test [8] has as its system RPMI-8226.
Test [9] relates to SF-268.
Test [10] deals with SF-295.
Test [11] deals with SK-MEL-28.
Test [12] relates to SNB-75.
Test [13] relates to T47D.
Test [14] has as its system U-251.
In test [15] the test system is UO-31.
Test [16] relates to NCI-H23.
Test [17] concerns NCI-H460.
In test [18] the test system is NCI-H522.
Test [19] has as its system OVCAR-8.
Test [20] relates to Malme-3M.

Take `CC1(C)[C@@H](Cn2nnc3c(N)ncnc32)CC[C@@]1(C)CO`: the GI50 in [1] is > 100 µM (inactive); in [2] it was greater than 100 µM; in test [3], > 100 µM (inactive); in test [4], > 100 µM (inactive); in test [5], > 100 µM (inactive); in [6], > 100 µM (inactive). Moreover, the GI50 in test [7], in test [8], in [9], in test [10], in test [11] and in [12] was > 100 µM (inactive) throughout. Also, the GI50 in [13], in [14] and in test [15] was > 100 µM (inactive) throughout.

As for `CN1N=C(c2ccncc2)OC1c1cccc(F)c1` (stereo not given), the GI50 in test [1] is > 100 µM (inactive); in [2], greater than 100 µM; in test [3] it was > 100 µM (inactive); in test [4] it was > 100 µM (inactive); in test [5], > 100 µM (inactive); in test [16], > 100 µM (inactive). Also, the GI50 in test [17], in [18], in test [6], in test [7], in test [19] and in test [8] was > 100 µM (inactive) each time. Also, the GI50 in test [9], in [10], in test [11], in test [12], in test [13] and in [14] was > 100 µM (inactive) in each case. Besides, the GI50 in test [15] was > 100 µM (inactive).

For the molecule `S=C1N(c2ccc(Cl)cc2)C2=C(/N=N/c3ccccc3)C(=Nc3ccccc3S2)N1c1ccccn1`, the GI50 in [1] was 14.7 µM (inactive); in test [2], 10.2 µM; in test [3], 16.4 µM (inactive); in test [4], 11.6 µM (inactive); in [5] it was 0.167 µM (active); in test [20] it was 2.78 µM (inactive). Besides, the GI50 in test [16] was 15 µM (inactive); in [17] it was 11 µM (inactive); in test [6], 14.2 µM (inactive); in [7], 19.1 µM (inactive); in test [19], 14.5 µM (inactive); in test [8] it was 17.7 µM (inactive). Besides, the GI50 is 3.59 µM (inactive) in test [9]; 15.7 µM (inactive) in test [10]; 15.4 µM (inactive) in [11]; 19 µM (inactive) in [12]; 0.075 µM (active) in test [13]; 11 µM (inactive) in [14]. The GI50 in [15] was 10.1 µM (inactive).

Regarding `NCCN1C(=O)c2ccccc2C1c1ccc(Cl)cc1` (stereo not given), the GI50 was > 100 µM (inactive) in test [1]; greater than 100 µM in [2]; > 100 µM (inactive) in test [3]; > 100 µM (inactive) in [4]; > 100 µM (inactive) in [5]; > 100 µM (inactive) in test [16]. Besides, the GI50 in test [17], in test [6], in [7], in [19], in test [8] and in test [9] was > 100 µM (inactive) throughout. The GI50 in test [10], in test [11], in test [12], in test [13], in [14] and in test [15] was > 100 µM (inactive) each time.

For `COc1cc2c(cc1OC)CC1c3cc(OC)c(OC)cc3CCN1CC2` (stereo not given), the GI50 in test [1] is > 100 µM (inactive); in [2] it was greater than 100 µM; in test [3], 22.9 µM (inactive); in test [4], > 100 µM (inactive); in [5] it was > 100 µM (inactive); in [16] it was 0.101 µM (active). Moreover, the GI50 is 17.5 µM (inactive) in test [17]; > 100 µM (inactive) in test [18]; > 100 µM (inactive) in [6]; > 100 µM (inactive) in test [7]; 95.5 µM (inactive) in test [19]; 41.8 µM (inactive) in [8]. In addition, the GI50 was 42.1 µM (inactive) in test [9]; 95.1 µM (inactive) in [10]; > 100 µM (inactive) in test [11]; > 100 µM (inactive) in test [12]; > 100 µM (inactive) in [13]; 52.8 µM (inactive) in test [14]. Moreover, in [15], the GI50 is 0.199 µM (active).

Turning to `COC(=O)c1cc(OS(=O)(=O)C(F)(F)F)c(=O)n2c1CCCC2`, the GI50 in [1] is > 100 µM (inactive); in [2], greater than 100 µM; in test [3], > 100 µM (inactive); in [4], > 100 µM (inactive); in test [5], > 100 µM (inactive); in [20], > 100 µM (inactive). Further, the GI50 in [16], in [18], in test [7], in test [19], in [9] and in [10] was > 100 µM (inactive) in each case. Moreover, the GI50 in [11], in [12], in test [13], in test [14] and in test [15] was > 100 µM (inactive) throughout.

Turning to `C=CCCCC1CCCNC1=S` (stereo not given), the GI50 in test [1] was > 100 µM (inactive); in test [2] it was greater than 100 µM; in test [3], > 100 µM (inactive); in test [4] it was > 100 µM (inactive); in [5], > 100 µM (inactive); in test [16] it was > 100 µM (inactive). The GI50 in [17], in test [18], in test [6], in test [7], in [19] and in [8] was > 100 µM (inactive) throughout. Besides, the GI50 in test [9], in test [10], in test [11], in test [12], in test [13] and in test [14] was > 100 µM (inactive) throughout. In addition, the GI50 in test [15] is > 100 µM (inactive).

As for `O=C1Oc2ccccc2N/C1=C/C(=O)c1ccc([N+](=O)[O-])cc1`, the GI50 in test [1] is > 100 µM (inactive); in [2], greater than 100 µM; in [3], 23.2 µM (inactive); in test [4], > 100 µM (inactive); in test [5], > 100 µM (inactive); in test [20] it was > 100 µM (inactive). Further, the GI50 in test [16] is > 100 µM (inactive); in [17], > 100 µM (inactive); in test [18], 23 µM (inactive); in [6], > 100 µM (inactive); in test [7], > 100 µM (inactive); in [19], > 100 µM (inactive). Moreover, the GI50 in test [9], in test [10], in [12], in [13], in test [14] and in [15] was > 100 µM (inactive) each time.

For `CO/C=C(/C(=O)OC)c1ccccc1[C@H]1C[C@@H]1c1ccc(OC)cc1`, the GI50 in test [1] was 32.1 µM (inactive); in [2], 19.2 µM; in [3], 25.9 µM (inactive); in test [4], 18.4 µM (inactive); in test [5], 32.1 µM (inactive); in [20], 15.6 µM (inactive). Moreover, the GI50 was 27.9 µM (inactive) in [16]; 21.9 µM (inactive) in test [17]; 7.93 µM (inactive) in [18]; 16.3 µM (inactive) in test [6]; 41.1 µM (inactive) in test [7]; 28.6 µM (inactive) in test [19]. Besides, the GI50 in [8] was 18.2 µM (inactive); in [9], 25.1 µM (inactive); in [10] it was 17.2 µM (inactive); in [11], 18.1 µM (inactive); in test [13], 21.1 µM (inactive); in test [14], 30.8 µM (inactive). Further, in test [15], the GI50 was 26.4 µM (inactive).

`O=C(/C=C/c1ccc2c(c1)OCO2)Cc1nc2ccccc2[nH]c1=O`: the GI50 was 29.2 µM (inactive) in [1]; 8.95 µM in test [2]; 14.1 µM (inactive) in test [3]; 18.9 µM (inactive) in test [4]; 33.9 µM (inactive) in test [5]; 18.3 µM (inactive) in [20]. In addition, the GI50 in [16] was 29.8 µM (inactive); in test [17], 22.6 µM (inactive); in test [18] it was > 100 µM (inactive); in test [6], 27.3 µM (inactive); in test [7] it was 22.9 µM (inactive); in [19], 28.5 µM (inactive). In addition, the GI50 in [8] is 28.1 µM (inactive); in test [9], 18.4 µM (inactive); in test [10] it was 17.4 µM (inactive); in test [11], 16.4 µM (inactive); in [13], 12 µM (inactive); in test [14] it was 16.8 µM (inactive). The GI50 in test [15] is 22.9 µM (inactive).

For the molecule `CCNC(=O)Nc1cccc(NC(=O)NCC)n1`, the GI50 in test [1] is > 100 µM (inactive); in test [3] it was > 100 µM (inactive); in test [4], > 100 µM (inactive); in test [5], 57.1 µM (inactive); in test [20] it was > 100 µM (inactive); in [16], > 100 µM (inactive). In addition, the GI50 in test [17], in test [18], in [6], in test [7], in test [19] and in test [9] was > 100 µM (inactive) in each case. Moreover, the GI50 in test [10] was > 100 µM (inactive); in test [11] it was > 100 µM (inactive); in test [12], 24.5 µM (inactive); in test [13], > 100 µM (inactive); in test [14], > 100 µM (inactive); in test [15] it was 43.8 µM (inactive).
